Consider three compounds from US20100119454A1, “Use of the conserved Drosophila NPFR1 system for uncovering interacting genes and pathways important in nociception and stress response” (priority 2008, published 2010).

For one assay, the system named is rats. As to conditions: injected into the forebrain of rats, paw-withdraw test; cited from earlier work.
For a further assay, the system named is Drosophila adult flies. Kind of assay: Two-choice preference test of adult flies (BITC). It is filed as in vivo, Drosophila melanogaster. The note with it: 0.4 mM BITC, 2-day old control flies. The protocol:
The two-choice preference test was based on a published procedure with some modifications (Al-Anzi et al., 2006), which is hereby incorporated by reference herein in its entirety. 2-day-old males withheld from food for 24 hr were presented with a 48-well plate containing two-colored food media in the alternating well rows. They contain 1% agar/10% fructose with 0.4 mM benzyl-isothiocyanate (BITC) in 75% ethanol or ethanol only. In each assay, 90-100 flies per line were tested in the dark. A preference index was defined as the fraction of […] choosing the BITC medium, minus the fraction of […] choosing the BITC-free medium. […] At least three trials were done for each line.

The subject of assay [1] is D. melanogaster post-feeding larvae. Put plainly: Larval aggregation / cooperative burrowing on solid agar media. It is filed as in vivo, Drosophila melanogaster. The note with it: solid 10% fructose agar, post-feeding larvae 96 hr AEL. The protocol:
(§1) Behavioral assays. The migration assay on soft agar media was performed as described previously (Xu et al., 2008), which is hereby incorporated by reference herein in its entirety. Twenty-five postfeeding larvae (96 h AEL) in one plate were allowed to move freely on the medium, and those that crawled onto the plastic surface became less mobile, and eventually formed pupae there. The percentage of pupae on agar media was scored after 24 hours. The clumping assay was also described in the following, which is hereby incorporated by reference herein in its entirety (Wu et al., 2003). Briefly, 45 mm petri dishes containing solid fructose agar (3% agar in a 10% fructose solution) were coated with a thin layer of yeast paste (0.5 g yeast powder in 10% fructose solution). Thirty larvae per plate were allowed to browse for 30 min, and those in clumps were scored immediately. The social burrowing assay was performed on solid agar media containing apple juice or 10% fructose, as described (Wu et al., 2003). All assays, unless stated otherwise, were performed at room temperature in the dark. At least three separate trials were performed per assay.

Assay [2] shares this test system. Kind of assay: Larval food aversion (migration) assay on soft agar media. Format: in vivo, Drosophila melanogaster. The method, then:
Behavioral Assays. The food aversion assay was performed in plastic petri dishes (60 mm in diameter). Each apple juice-agar plate contains a mix (ca. 7 ml) of 1 g of Drosophila agar powder (USB, Swampscott, Mass.) and 6 ml apple-juice solution (0.1 g carbohydrates per ml, equivalent to 20% of frozen concentrate). Other soft agar media were made by mixing 1 g agar powder with 6.5 ml of distilled water or solution containing 10% fructose, 10% lactose, 10% sorbitol or 50 μM capsaicin, respectively. The amount of agar powder may require adjustment depending on agar quality. Twenty-five new post-feeding larvae (96 h AEL) were transferred onto a plate. The larvae were allowed to move freely on the medium, and those that crawled onto the plastic surface became less mobile and eventually formed pupae there. The percent of pupae on agar media was scored after 24 hours. All experiments were performed at room temperature except for the temperature shift assay. In these experiments, larvae and food media were pre-incubated at 30° C. for 60 min before the assay. The larvae were subsequently transferred onto the medium and kept at 30° C. All assays were performed in the dark. At least three separate trials were performed per assay.
as §1

Assay [3] has as its system pain-expressing sensory neurons. Kind of assay: Calcium imaging (yellow cameleon 2.1, SOARS analysis) of larval sensory neurons. The note with it: lactose-fructose alternate. It is filed as cell-based, Drosophila melanogaster. The protocol: Imaging. The live images of second instar larvae (ca. 48 h AEL) expressing DsRed driven by pain-gal4 were obtained using a Leica epifluorescence microscope. The immunofluorescence images were taken by a Zeiss LSM 510 Meta confocal microscope and processed by Zeiss AIM Image Examiner. […] Larvae were dissected in a modified HL6 solution containing lactose (HL6-Lac, 23.7 mM NaCl, 15 mM MgCl2, 24.8 mM KCl, 0.5 mM CaCl2, 10 mM NaHCO3, 5 mM HEPES, 240 mM lactose)^38. An incision was made along the dorsal midline, and the gut and the fat bodies were removed. The tissue was placed ventral side up in HL6 solution on a silicon-coated coverslip (Sylgard 184, DOW Corning Corp., Midland, Mich.) in a Dvorak-Stotler perfusion chamber (Lucas Highland, Chantilly, Va.). A minute amount of cyanoacrylate glue (Nexaband S/C, Abott Laboratories, North Chicago, Ill.) was applied to the edge of the cuticle using a glass micropipette to immobilize the tissue. The imaging was performed on a Zeiss LSM 510 Meta confocal microscope (Carl Zeiss Microimaging, Thornwood, N.Y.). YC2.1 was excited at 458 nm with an argon laser. Emission fluorescence was filtered by a BP 475-525 filter (cyan) and an LP 530 filter (yellow). 256×256 pixel images for ratiometric analysis were collected at 1 frame s^−1. The tissue was perfused at a rate of 8.3 ul s^−1 with HL6-Lac, periodically alternating with a modified HL6 solution containing fructose (HL6-Fru, with 240 mM fructose substituting 240 mM lactose in HL6-Lac), switching at 120-second intervals for a total of 800 seconds. The images were subsequently analyzed with the SOARS method (Statistical Optimization for the Analysis of Ratiometric Signals, Version 1.1) as described in the following references, which are hereby incorporated by reference herein in their entireties (Fan, X., et al., 2007; Broder, J., et al., 2007), using Matlab (MathWorks, Natick, Mass.; also see http://www.engr.uga.edu/research/groups/atslab/Software.html).
In brief, SOARS is a multivariate statistical optimization procedure performed on both CFP and YFP channels of the FRET imaging data. The analysis results in a set of eigenimages and associated time courses that represent the part of the imaged signal displaying statistically significant spatial correlation and temporal anti-correlation (e.g., the aspects of the signal that are demonstrable due to FRET). These eigenimages represent the spatial distribution of anti-correlated FRET changes in response to sugar stimulation. Because the stimulus was periodic, the time courses were tested for the presence of stimulus-locked activity. To quantify the significance of the periodic part of the FRET response, p-values for a periodic (sinusoidal) response at the stimulus frequency were calculated using multitaper harmonic analysis (a common method for the detection of sinusoids in noisy data) as described in the following references, which are hereby incorporated herein by reference in their entirety. (Thomson 1982; Mitra et al., 1999, Sornborger et al., 2003; Mitra et al., 2008).
In vivo calcium imaging. […] To quantify the significance of anti-correlated FRET response to fructose stimulation, p-values were calculated for a periodic (sinusoidal) response at the stimulus frequency using multitaper harmonic analysis, a common method for the detection of sinusoids in noisy data (Thomson, 1982), which is hereby incorporated by reference herein in its entirety.

Regarding “NPY: abundant signaling peptide in the brain of mammals”, the nociceptive threshold entry in the assay with rats was “significantly elevated”.
`S=C=NCc1ccccc1` [BITC, benzyl-isothiocyanate]: the “food choice of adult flies” value in the assay on Drosophila adult flies is reported as “mostly avoided”.
Consider `O=C(CO)[C@@H](O)[C@H](O)[C@H](O)CO` [fructose], for which the “larval grouping behavior on solid medium” value in assay [1] is “aggregation and cooperative burrowing”. Besides, the “response of wild type larvae to sugar media” value in assay [2] (10% sugar media, wild type larvae (FIG. 2B)) was “aversive”. For the same compound, the “larvae that moved away from the medium / pupated outside of the medium” value in assay [2] (w1118 new post-feeding larvae (ca. 96 h AEL), soft agar paste, apple juice or 10% fructose) was “about 80%”. Also, the Anti-correlated signal entry in assay [3] (pain^gal4/+, UAS-YC 2.1/+, 74 h AEL, ventral sensory neurons in T2 and T3 segments) was “No”; in assay [3] (pain^gal4/+, UAS-YC 2.1/+, 96 h AEL, chordotonal neurons in A1 segment), “No”; in assay [3] (pain^gal4/+, UAS-YC 2.1/+, 96 h AEL, ventral sensory neurons in T2 and T3 segments), “Yes”; in assay [3] (pain^gal4/pain^3, UAS-YC 2.1/+ (pain mutant), 96 h AEL, ventral sensory neurons in T2 and T3) it was “No”.
